The results in this text go back to paper PMC8400540, “Synthesis, Biological Evaluation, and In Silico Studies of New Acetylcholinesterase Inhibitors Based on Quinoxaline Scaffold” (Molecules, 2021).

Series [1] addresses T1, human recombinant acetylcholinesterase (HuAChE) (Homo sapiens, UniProt P22303).
T1 construct: purchased Sigma-Aldrich
The series is described as follows: biochemical. The note with it: for Selectivity BChE/AChE: Selectivity index for AChE: IC50 BChE/IC50 AChE.

In series [2] the target is T2, butyrylcholinesterase from equine serum (EqBChE) (Equus caballus, UniProt P81908).
T2 construct: butyrylcholinesterase from equine serum (eqBChE); purchased Sigma-Aldrich; host or cells: equine serum
Briefly: biochemical. It is filed as biochemical. Particulars: for IC50: EqBChE, n = three independent experiments; for IC50 / inhibition at 100 µM: mean ± SD; for inhibition at 100 µM: n = three, read-out: %Inhibition BChE; for butyrylcholinesterase inhibitory activity (in words): screened at 100 µM. On the procedure: Initially, acetylcholinesterase and butyrylcholinesterase inhibitory activities of the compounds were screened at the concentration of 100 µM. […] The raw data of IC50 in this study were able to be accessed in Supplementary Materials.
Human recombinant acetylcholinesterase (HuAChE), butyrylcholinesterase from equine serum (eqBChE), acetylthiocholine iodide (ATCI), butyrylthiocholine iodide (BTCI) and 5,5′-dithiobis(2-nitrobenzoic acid) (DTNB) were gained from Sigma-Aldrich. Assays of acetyl- and butyrylcholinesterase inhibitory activity were performed according to Ellman’s method described previously. Briefly, these assays were performed as follows. The reaction mixture (250 µL), containing 50 µL of buffer (50 mM Tris-HCl buffer (pH 8.0), 0.1 M NaCl, 0.02 M MgCl2.6H2O), 25 µL of 1.5 mM of ATCI or BTCI, 25 µL of 100 µM of test compounds in EtOH and 125 µL of 3 mM DTNB were added. Then, 25 µL of HuAChE and equine serum of BChE in 50 mM Tris-HCl buffer containing 0.1% (w/v) BSA (pH 8.0). Reactions were initiated by the addition of the enzyme into the medium. […] Each experiment was repeated in triplicate.
The percentage of enzyme inhibitory activity (%Inhibition) was calculated by the following expression: %Inhibition = ((Mean velocity of blank-Mean velocity of sample) × 100)/Mean velocity of blank.

The nature of series [3]: Cytotoxicity, sulforhodamine B (SRB) assay. It is filed as cell-based. Particulars: human, SH-SY5Y neuroblastoma cells, up to 100 µM, read-out: LC50. On the procedure: Selected compounds in the series were then evaluated for their cytotoxicity against SH-SY5Y neuron cells. […].
Figure 3 The cytotoxic effect of synthesized compounds on SH-SY5Y cells as determined by SRB assay. Cells were treated with the synthesized compounds at different concentrations for 48 h, and then SRB assay was performed. Data are means ± SD of three independent experiments, and %cell viability was calculated relative to nontreated control.
The cytotoxicity assay of the tested compounds against human SH-SY5Y neuroblastoma cells was measured using a sulforhodamine B (SRB) assay. The cells were cultured in Dulbecco’s modified Eagle’s medium supplemented with 10% fetal bovine serum (Gibco, Paisley, UK) and grown at 37 °C in a humid atmosphere containing 5% CO2. Cells (10,000 cells/well) were seeded in a 96-well plate and incubated at 37 °C, 5% CO2 for 24 h. The cells were then treated with or without various concentrations (0, 3.125, 6.25, 12.5, 25, 50, and 100 μM) of each compound for 48 h. After an incubation period, 40% (w/v) trichloroacetic acid (TCA) was added to the cells, and the cells were then incubated at 4 °C for 1 h. A total of 0.4% (w/v) SRB solution (100 μL) was added to each well, and the cells were incubated for 1 h at room temperature. The SRB solution was removed, and then the cells were washed three times with 1% (v/v) acetic acid, and they were allowed to dry at room temperature. The protein-bound dye was dissolved with 10 mM Tris base solution, and the absorbance was measured at 492 nm using a microplate reader.
(In general: The SRB assay estimates cell density from bound dye.)

A further series has as its target T3, Human recombinant AChE (Homo sapiens, UniProt P22303).
T3 construct: purchased Sigma-Aldrich
The series is described as follows: Enzyme kinetic study of AChE inhibition (Lineweaver-Burk). In kind it is biochemical. Here is the method:
[…]. The kinetic assay of AChE inhibition was carried out at 0, 30, 50 and 60 µM of compound 6c. […]. [ATCI], substrate concentration (µM); V, reaction velocity (1/V (abs/min)^−1).
Kinetic studies of HuAChE were performed by Ellman’s method as described above. […]. Kinetic characterization of the hydrolysis of ATCI for HuAChE was carried out spectrometrically at 405 nm every 11 s for 2 min. A parallel control was run with the assay solution without inhibitor. The inhibition was evaluated by Lineweaver–Burk plot from substrate concentrations range between 10 to 250 µM for ATCI and inhibitor concentrations (0, 30, 50, 60 µM). The type of inhibition (competitive, uncompetitive, noncompetitive and mixed type inhibition) was calculated from the Michaelis–Menten equation was converted to Lineweaver–Burk equation into a straight line by plotting 1/velocity opposite to 1/[S]. Graphs were plotted by means of GraphPad Prism 7.03 for Windows (GraphPad Software, San Diego, CA, USA, www.graphpad.com, accessed on 13 May 2021).
From obtained equations of regression curves in the Lineweaver-Burk plot, the values of maximum velocity (Vm) and Michealis constant (Km) were calculated. Using non-linear regression (selected panel: enzyme kinetic inhibition/ mixed model inhibition) the values of Ki and alpha were determined. The alpha value defines the mechanism. […]

Setting [4] is: HuAChE, mean ± SD, n = three independent experiments, read-out: IC50 AChE.

Read-outs that look alike come from different tables or passages of the source.

T2 sequence (P81908 whole entry): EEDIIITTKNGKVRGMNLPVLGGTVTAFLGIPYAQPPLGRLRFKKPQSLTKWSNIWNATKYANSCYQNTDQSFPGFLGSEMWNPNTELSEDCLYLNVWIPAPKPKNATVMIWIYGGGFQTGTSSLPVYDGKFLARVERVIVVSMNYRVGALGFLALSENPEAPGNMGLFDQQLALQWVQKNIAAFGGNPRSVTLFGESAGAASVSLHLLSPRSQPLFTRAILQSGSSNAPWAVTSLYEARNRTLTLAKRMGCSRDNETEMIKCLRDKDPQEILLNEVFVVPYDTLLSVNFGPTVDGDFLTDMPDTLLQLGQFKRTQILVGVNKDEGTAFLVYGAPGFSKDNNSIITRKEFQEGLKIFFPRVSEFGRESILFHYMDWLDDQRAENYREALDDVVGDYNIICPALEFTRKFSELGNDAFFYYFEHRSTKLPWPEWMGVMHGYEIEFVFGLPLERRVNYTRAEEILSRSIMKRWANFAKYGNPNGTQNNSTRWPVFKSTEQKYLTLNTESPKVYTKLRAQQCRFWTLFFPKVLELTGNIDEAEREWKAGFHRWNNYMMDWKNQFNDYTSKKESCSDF
T1 sequence (P22303 32-614): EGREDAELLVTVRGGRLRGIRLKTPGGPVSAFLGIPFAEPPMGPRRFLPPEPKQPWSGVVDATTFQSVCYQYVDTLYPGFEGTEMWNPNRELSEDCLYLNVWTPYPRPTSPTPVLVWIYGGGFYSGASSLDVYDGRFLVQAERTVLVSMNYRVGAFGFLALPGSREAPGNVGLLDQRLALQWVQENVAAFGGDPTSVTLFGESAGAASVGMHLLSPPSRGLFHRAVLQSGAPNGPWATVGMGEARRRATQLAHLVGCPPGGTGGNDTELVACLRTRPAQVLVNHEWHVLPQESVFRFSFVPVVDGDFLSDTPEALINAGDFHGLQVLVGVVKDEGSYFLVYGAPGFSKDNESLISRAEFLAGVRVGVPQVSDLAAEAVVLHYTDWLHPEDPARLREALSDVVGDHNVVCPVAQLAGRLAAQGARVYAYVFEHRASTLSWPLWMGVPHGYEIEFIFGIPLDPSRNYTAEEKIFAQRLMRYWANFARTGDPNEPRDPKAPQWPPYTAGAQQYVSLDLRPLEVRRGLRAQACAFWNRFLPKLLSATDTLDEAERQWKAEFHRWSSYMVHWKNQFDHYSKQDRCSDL
T3 sequence (P22303 32-614): as above

`c1ccc2nccnc2c1` [Compound 3a, Quinoxaline]: in series [1], the IC50 is 13.2 ± 4.1 µM and the “Selectivity BChE/AChE” value is given as 3.07. For the same compound, the midpoint of inhibition in series [2], the IC50, lay at 40.6 ± 1.6 µM.
With `c1ccc(-c2cnc3ccccc3n2)cc1` [Compound 3b, 2-Phenylquinoxaline], the results for the IC50 in series [1] (setting [4]) and in series [2] were 50.1 ± 2.6 µM and 14.9 ± 2.6 µM, respectively. For the same compound, in series [1], the “Selectivity BChE/AChE” value worked out at 0.29.
On to `Cc1nc2ccccc2nc1C` [Compound 3c, 2,3-Dimethylquinoxaline], for which the IC50 in series [1] stood at 7.25 ± 1.5 µM. Also, in series [2], the inhibition at 100 µM turned out to be 23.4% and the “butyrylcholinesterase inhibitory activity (in words)” value is given as “no activity”.
For `Clc1ccc2nccnc2c1` [Compound 4a, 6-Chloroquinoxaline], the IC50 in series [1] turned out to be 23.9 ± 1.3 µM. The inhibition at 100 µM in series [2] came out at 37.4%.
Consider `Clc1ccc2ncc(-c3ccccc3)nc2c1` [Compound 4b, 7-Chloro-2-phenylquinoxaline], for which the IC50 in series [1] (setting [4]) was 28.5 ± 1.6 µM. The inhibition at 100 µM in series [2] came to 41.2%.
For the compound `Cc1nc2ccc(Cl)cc2nc1C` [Compound 4c, 6-Chloro-2,3-dimethylquinoxaline], the IC50 in series [1] (setting [4]) worked out at 10.7 ± 1.4 µM. In series [2], the inhibition at 100 µM amounted to 37.4% and the “butyrylcholinesterase inhibitory activity (in words)” value was “no activity”.
Consider `O=[N+]([O-])c1ccc2nccnc2c1` [Compound 5a, 6-Nitroquinoxaline], for which the IC50 was 21.3 ± 1.5 µM in series [1] (setting [4]) and 42 ± 1 µM in series [2]. The “Selectivity BChE/AChE” value in series [1] is listed as 1.97.
Taken in the same sequence, the figures for `O=[N+]([O-])c1ccc2ncc(-c3ccccc3)nc2c1` [Compound 5b, 7-Nitro-2-phenylquinoxaline] were 39 ± 0.8 µM, 61 ± 3.4 µM and 1.56.
On to `Cc1nc2ccc([N+](=O)[O-])cc2nc1C` [Compound 5c, 2,3-Dimethyl-6-nitroquinoxaline], for which the IC50 in series [1] (setting [4]) stood at 8.42 ± 1.8 µM. Besides, in series [2], the inhibition at 100 µM is 32.1% and the “butyrylcholinesterase inhibitory activity (in words)” value is recorded as “no activity”.
Regarding `Nc1ccc2nccnc2c1` [Compound 6a, Quinoxalin-6-amine], in series [1], the IC50 came out at 0.74 ± 0.5 µM. In addition, the CC50 at 48 h in series [3] is more than 100 µM. Further, the inhibition at 100 µM in series [2] worked out at 32.9%.
Turning to `Nc1ccc2ncc(-c3ccccc3)nc2c1` [Compound 6b, 3-Phenylquinoxalin-6-amine], the IC50 in series [1] (setting [4]) stood at 1.31 ± 0.2 µM. For the same compound, the CC50 at 48 h in series [3] was more than 100 µM. Besides, the inhibition at 100 µM in series [2] is 44.1%.
Turning to `Cc1nc2ccc(N)cc2nc1C` [Compound 6c, 2,3-Dimethylquinoxalin-6-amine], the IC50 in series [1] (setting [4]) was found to be 0.077 ± 0.01 µM. The “type of AChE inhibition” value on Human recombinant AChE (Lineweaver-Burk plot) is listed as “mixed-type inhibitor”. Further, at Human recombinant AChE (non-linear regression, mixed model inhibition), the Alpha worked out at 0.1875. Besides, the CC50 at 48 h in series [3] was more than 100 µM. Moreover, in series [2], the inhibition at 100 µM was 29.2% and the “butyrylcholinesterase inhibitory activity (in words)” value was “no activity”.

In general, IC50 refers to the point on the concentration scale where inhibition reaches its midpoint. The term inhibition denotes the percentage by which the read-out fell short of the control.
